# Experiments:
# [1] = tested on: interaction between SnRK1A and SKINs; experiment: Rice embryo GAL4-UAS two-hybrid assay (luciferase); type: cell-based; conditions: rice embryos, −S medium containing 1 μM ABA
# Experimental: FIG. 2. The N-terminus of SKIN interacts with the kinase domain of SnRK1A. For the GAL4-UAS two-hybrid assay, rice embryos were co-transfected with effector and reporter plasmids, incubated in −S medium for 24 h, and assayed for luciferase activity. The luciferase activity in rice embryos bombarded with effectors Ubi:GAD, Ubi:GBD and reporter 5XUAS-35S mp:Luc was set to 1×, and other values were calculated relative to this value. Error bars indicate the SE for three replicate experiments. Significance levels: * p<0.1, ** p<0.05. The Y axis indicates the relative luciferase activity with different constructs. (A) Plasmid constructs. (B) Rice embryos were co-transfected with effectors Ubi:GAD-SnRK1A and Ubi:GBD-SKIN (wild type or truncated) and reporter 5XUAS-35S mp:Luc. (C) Rice embryos were co-transfected with effectors Ubi:GAD-SnRK1A [wild type, kinase domain (KD) or regulatory (RD)], Ubi:GBD-SKIN and reporter 5XUAS-35S mp:Luc. (D) Rice embryos were co-transfected with effectors Ubi:GAD-SnRK1A and Ubi:GBD-SKIN and reporter 5XUAS-35S mp:Luc, and incubated in −S medium containing 1 μM ABA.
# Rice embryos were prepared for particle bombardment as described (Chen et al., 2006). The rice embryos were bombarded with reporter, effectors and internal control at a ratio of 4:2:1 for single effector or 4:2:2:1 for two effectors. […]
# αAmy3 SRC promoter = experiment: Rice embryo transient expression assay, SRC-35Smp:Luc reporter (luciferase); type: cell-based; conditions: rice embryos, 1 μM ABA or 50 mM sorbitol, 24 h
# Experimental: FIG. 3. The highly conserved GKSKSF domain (KSD) is essential for SKINs to antagonize the function of SnRK1A. Rice embryos were transfected with plasmids, incubated in medium with 100 mM glucose (+S) or without glucose (−S) for 24 h, and assayed for luciferase activity. The luciferase activity in rice embryos bombarded with the SRC-35S mp-Luc construct only and in +S medium was set to 1×, and other values were calculated relative to this value. Error bars indicate the SE for three replicate experiments. (A) Plasmid constructs. (B) Rice embryos were co-transfected with effector Ubi:SnRK1A, Ubi:SKIN1 or Ubi:SKIN(Ri) alone and reporter SRC-35Smp:Luc, or co-transfected with effectors Ubi:SnRK1A and Ubi:SKIN or Ubi:SKIN(Ri) and reporter SRC-35Smp:Luc. (C) Total cellular proteins were extracted from rice embryos transfected with Ubi:SnRK1A, Ubi:SKIN or Ubi:SnRK1A and Ubi:SKIN by particle bombardment and subjected to Western blot analysis using antibodies against SnRK1A and the HA tag fused to at the N-terminus of SKINs. (D) Rice embryos were co-transfected with effectors Ubi:SnRK1A and Ubi:SKIN1 (wild-type or truncated) and reporter SRC-35Smp:Luc. (E) Rice embryos were co-transfected with effectors Ubi:SnRK1A and Ubi:SKIN (wild-type, KSD deleted, or KSD replaced with 6 Ala) and reporter SRC-35Smp:Luc.
# FIG. 21. ABA and sorbitol suppress the function of SnRK1A in activation of αAmy3 SRC promoter. Rice embryos and barley aleurones were transfected with reporter SRC-35Smp:Luc with or without effectors, incubated with or without ABA for 24 h, and assayed for luciferase activity. The luciferase activity in embryos or aleurones bombarded with the SRC-35S mp-Luc construct only and in +S medium was set to 1×, and other values were calculated relative to this value. Error bars indicate the SE for three replicate experiments. (A) Plasmid constructs. (B) Barley aleurones were transfected with effector Ubi:SnRK1A, Ubi:SKIN1 or Ubi:SKIN(Ri) alone and reporter SRC-35Smp:Luc, or co-transfected with effectors Ubi:SnRK1A and Ubi:SKIN or Ubi:SKIN(Ri) and reporter SRC-35Smp:Luc. (C) Rice embryos (upper panel) were transfected with or without Ubi:SnRK1A and incubated with or without 1 μM ABA or 50 mM sorbitol, and barley aleurones (lower panel) were transfected with or without Ubi:SnRK1A and incubated with 5 μM ABA or 400 mM sorbitol.
# Rice embryos were prepared for particle bombardment as described (Chen et al., 2006). The rice embryos were bombarded with reporter, effectors and internal control at a ratio of 4:2:1 for single effector or 4:2:2:1 for two effectors. The internal control (Ubi::GUS) was used to normalize the reporter enzyme activity because different transformation efficiency might occur in each independent experiment. Bombarded rice embryos were divided into two halves, with half being incubated in MS liquid medium containing 100 mM Glc, and the other half grown in MS liquid containing 100 mM mannitol, for 24 h. Total proteins were extracted for embryos with a cell lysis buffer [0.1 M K-phosphate, pH 7.8, 1 mM EDTA, 10% glycerol, 1% triton X-100, and 7 mM β-mercaptoethanol]. GUS assay buffer [0.1 M Na-phosphate, 20 mM EDTA, 0.2% sarcosine, 0.2% Triton X-100, and 20 mM β-mercaptoethanol] was used for GUS activity assay. The activity assay of GUS and luciferase were described elsewhere (Lu et al., 1998). All bombardments were repeated at least three times.
smiles,measurement,setting,value
"CC1=CC(=O)CC(C)(C)[C@@]1(O)/C=C/C(C)=C\C(=O)O [ABA, abscisic acid]",Effect on the interaction between SnRK1A and SKINs,[1],enhanced
same,"Effect on αAmy3 SRC promoter (luciferase activity), alone and SnRK1A-activated",αAmy3 SRC promoter,suppressed

# From patent US20180273970A1, “PLASMID, TRANSFORMED PLANT CELL AND TRANSGENIC PLANT COMPRISING THE SAME, AND METHODS FOR PREPARING A TRANSGENIC PLANT AND FOR INCREASING YIELD OF A PLANT UNDER ABIOTIC STRESSES” (Academia Sinica, priority 2014, published 2018)
